Measured values as given in ChEMBL document CHEMBL3758092, “Discovery and preclinical evaluation of potent, orally bioavailable, metabolically stable cyclopropylindolobenzazepine acylsulfonamides as thumb site 1 inhibitors of the hepatitis c virus NS5B RNA-dependent, RNA polymerase” (Bioorg Med Chem Lett, 2016).

How the values were obtained:
Hepatitis C virus [1] = assay: Antiviral activity against HCV1b by replicon assay; format: functional, organism-based, Hepacivirus hominis; conditions: genotype 1b
[2] = Half life in cynomolgus monkey liver microsomes; format: ADME, Macaca fascicularis
[3] = Ratio of drug level in liver to plasma in rat at 10 mg/kg, po after 48 hrs; format: ADME, organism-based
[4] = target: Voltage-gated inwardly rectifying potassium channel KCNH2 (Homo sapiens, UniProt Q12809); assay: Inhibition of human ERG by FLIPR assay
Hepatitis C virus [5] = assay: Antiviral activity against HCV1b by replicon assay in presence of 40% human serum; format: functional, organism-based, Hepacivirus hominis; conditions: genotype 1b
[6] = Oral bioavailability in rat at 10 mg/kg; format: ADME, organism-based; conditions: in vivo
[7] = Half life in human liver microsomes; format: ADME
[8] = Ratio of drug level in liver to plasma in rat at 10 mg/kg, po after 6 hrs; format: ADME, organism-based
in vitro = conditions: rat, liver microsomes
Description: Metabolic stability in rat liver microsomes assessed as compound remaining after 10 mins

[9] = Ratio of drug level in liver to plasma in rat at 10 mg/kg, po after 24 hrs; format: ADME, organism-based
[10] = Ratio of drug level in liver to plasma in rat at 10 mg/kg, po after 4 hrs; format: ADME, organism-based
[11] = Clearance in rat at 10 mg/kg, po; format: ADME, organism-based; conditions: in vivo
Hepatitis C virus [12] = assay: Antiviral activity against HCV1a by replicon assay; format: functional, organism-based, Hepacivirus hominis; conditions: subtype 1a
[13] = (§1) Drug uptake in rat at 10 mg/kg, po liver after 48 hrs; format: ADME, organism-based; conditions: liver, read-out: Drug uptake
[14] = Drug uptake in rat at 10 mg/kg, po liver after 6 hrs; format: ADME, organism-based; conditions: read-out: Drug uptake
Liver [15] = assay: Drug uptake in rat at 10 mg/kg, po liver after 24 hrs; format: ADME, organism-based; conditions: in vivo, BLD = below limit of detection
[16] = Permeability of the compound at pH 7.4 by PAMPA; format: ADME; conditions: read-out: permeability
[17] = Plasma concentration in rat at 10 mg/kg, po after 6 hrs; format: ADME, organism-based
Liver [18] = assay: as §1; format: ADME, organism-based; conditions: in vivo, 48 h, BLD = below limit of detection
[19] = Drug uptake in rat at 10 mg/kg, po liver after 4 hrs; format: ADME, organism-based; conditions: read-out: Drug uptake

Sequence of Voltage-gated inwardly rectifying potassium channel KCNH2 (Q12809 whole entry): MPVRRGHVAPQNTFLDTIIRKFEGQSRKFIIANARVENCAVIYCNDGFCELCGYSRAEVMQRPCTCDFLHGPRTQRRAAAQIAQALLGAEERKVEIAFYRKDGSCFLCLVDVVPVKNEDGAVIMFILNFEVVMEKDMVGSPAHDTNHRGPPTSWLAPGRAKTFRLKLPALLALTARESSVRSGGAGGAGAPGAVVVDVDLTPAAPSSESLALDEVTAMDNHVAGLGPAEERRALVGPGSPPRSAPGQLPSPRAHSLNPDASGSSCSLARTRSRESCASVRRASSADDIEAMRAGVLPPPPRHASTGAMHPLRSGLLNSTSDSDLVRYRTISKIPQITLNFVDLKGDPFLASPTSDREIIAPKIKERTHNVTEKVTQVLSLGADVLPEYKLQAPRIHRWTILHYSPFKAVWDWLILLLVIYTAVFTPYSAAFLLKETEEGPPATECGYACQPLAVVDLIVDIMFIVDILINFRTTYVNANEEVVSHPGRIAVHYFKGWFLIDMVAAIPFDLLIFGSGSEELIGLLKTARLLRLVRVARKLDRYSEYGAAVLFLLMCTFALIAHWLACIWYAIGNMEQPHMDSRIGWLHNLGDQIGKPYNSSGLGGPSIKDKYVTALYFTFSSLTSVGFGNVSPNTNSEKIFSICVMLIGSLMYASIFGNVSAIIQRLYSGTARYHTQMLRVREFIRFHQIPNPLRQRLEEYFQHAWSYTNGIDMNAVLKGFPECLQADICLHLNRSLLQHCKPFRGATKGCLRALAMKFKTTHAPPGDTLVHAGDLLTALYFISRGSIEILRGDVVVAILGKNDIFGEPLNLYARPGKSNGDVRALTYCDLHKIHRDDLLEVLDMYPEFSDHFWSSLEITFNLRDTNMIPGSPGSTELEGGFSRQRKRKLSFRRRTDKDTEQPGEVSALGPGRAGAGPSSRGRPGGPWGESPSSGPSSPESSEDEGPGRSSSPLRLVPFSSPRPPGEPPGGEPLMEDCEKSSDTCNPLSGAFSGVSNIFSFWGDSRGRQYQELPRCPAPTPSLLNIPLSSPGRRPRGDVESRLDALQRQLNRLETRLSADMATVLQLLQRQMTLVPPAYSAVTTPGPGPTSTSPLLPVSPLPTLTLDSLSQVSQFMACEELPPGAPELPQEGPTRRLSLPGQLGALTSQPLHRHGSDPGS

Row | SMILES | EC50 (Hepatitis C virus [1]) [nM] | half-life [2] [min] | bioavailability [6] [%] | half-life [7] [min] | Kp at 6 h [8] | CL/F [11] [mL/min/kg] | EC50 (Hepatitis C virus [12]) [nM] | concentration at 6 h [14] [µM] | other results
1 | COc1ccc2c(c1)[C@@H]1C[C@]1(C(=O)N1C3CCC1CN(C)C3)Cn1c-2c(C2CCCCC2)c2ccc(C(=O)NS(=O)(=O)CC(C)C)cc21 | 2 | 24.4 | 41 | > 72 | 47 |  |  |  | Kp at 48 h [3]: 4; IC50 [4]: 16600 nM; EC50 (Hepatitis C virus [5]): 80 nM; remaining at 10 min (in vitro): 100%
2 | COc1ccc2c(c1)[C@@H]1C[C@]1(C(=O)N1[C@@H]3CC[C@H]1CN(C)C3)Cn1c-2c(C2CCCCC2)c2ccc(C(=O)NS(=O)(=O)N(C)C)cc21 [BECLABUVIR] |  |  | 43 | 45 | 10 |  |  |  | Kp at 24 h [9]: 10; IC50 [4]: 26000 nM; EC50 (Hepatitis C virus [5]): 40 nM; Kp at 4 h [10]: 2; remaining at 10 min (in vitro): 100%
3 | COc1ccc2c(c1)C1CC1(C(=O)N1C3CCC1CN(C)C3)Cn1c-2c(C2CCCCC2)c2ccc(C(=O)NS(=O)(=O)CC3CC3)cc21 (racemic) | 22 | 39 | 13.7 | 200 |  | 19.6 | 5 |  | concentration at 48 h [13]: 0.15 µM
4 | COc1ccc2c(c1)C1CC1(C(=O)N1C3CCC1CN(C)C3)Cn1c-2c(C2CCCCC2)c2ccc(C(=O)NS(=O)(=O)CC(C)C)cc21 (racemic) | 22 | 24.5 |  | > 60 | 150 | 9.2 | 14 | 88.3 | 
5 | COc1ccc2c(c1)C1CC1(C(=O)N1C3CCC1CN(C)C3)Cn1c-2c(C2CCCCC2)c2ccc(C(=O)NS(=O)(=O)C(C)C)cc21 (racemic) | 28 |  | 65 |  | 13 |  | 20 | 26.2 | 
6 | COc1ccc2c(c1)C1CC1(C(=O)N1C3CCC1CN(C)C3)Cn1c-2c(C2CCCCC2)c2ccc(C(=O)NS(=O)(=O)C3CCC3)cc21 (racemic) | 40 | 46.5 |  | > 60 | 67 | 5.2 | 23 | 38.8 | 
7 | COc1ccc2c(c1)C1CC1(C(=O)N1C3CCC1CN(C)C3)Cn1c-2c(C2CCCCC2)c2ccc(C(=O)NS(=O)(=O)C(C)(C)C)cc21 (racemic) | 23 | 44 | 12.4 | > 60 |  | 13.5 | 8 |  | Drug uptake (Liver [15]): BLD
8 | CCCCS(=O)(=O)NC(=O)c1ccc2c(C3CCCCC3)c3n(c2c1)CC1(C(=O)N2C4CCC2CN(C)C4)CC1c1cc(OC)ccc1-3 (racemic) | 45 | 19 |  | 73 |  |  | 15 |  | 
9 | CCN(C)S(=O)(=O)NC(=O)c1ccc2c(C3CCCCC3)c3n(c2c1)CC1(C(=O)N2C4CCC2CN(C)C4)CC1c1cc(OC)ccc1-3 (racemic) | 13 |  |  | 27.3 |  |  | 14 | 36.4 | Papp [16]: 56.1 ×10⁻⁶ cm/s; concentration at 6 h [17]: 0.178 µM; remaining at 10 min (in vitro): 94%
10 | COc1ccc2c(c1)C1CC1(C(=O)N1C3CCC1CN(C)C3)Cn1c-2c(C2CCCCC2)c2ccc(C(=O)NS(=O)(=O)CC(C)(C)C)cc21 (racemic) | 41 | 8.4 |  | 48 | 14.5 | 4.1 | 23 | 65.3 | 
11 | CCCS(=O)(=O)NC(=O)c1ccc2c(C3CCCCC3)c3n(c2c1)CC1(C(=O)N2C4CCC2CN(C)C4)CC1c1cc(OC)ccc1-3 (racemic) | 21 | 37 |  | 112 | 120 | 16.5 | 8 | 13.1 | 
12 | COc1ccc2c(c1)C1CC1(C(=O)N1C3CCC1CN(C)C3)Cn1c-2c(C2CCCCC2)c2ccc(C(=O)NS(=O)(=O)N3CCC3)cc21 (racemic) | 24 | 55 |  | 135 |  |  | 12 | 0.8 | Papp [16]: 66.5 ×10⁻⁶ cm/s; concentration at 6 h [17]: 0.02 µM; remaining at 10 min (in vitro): 100%
13 | COc1ccc2c(c1)[C@H]1C[C@@]1(C(=O)N1C3CCC1CN(C)C3)Cn1c-2c(C2CCCCC2)c2ccc(C(=O)NS(=O)(=O)C(C)C)cc21 | 148 |  |  |  |  |  | 196 |  | 
14 | COc1ccc2c(c1)C1CC1(C(=O)N1C3CCC1CN(C)C3)Cn1c-2c(C2CCCCC2)c2ccc(C(=O)NS(=O)(=O)CC3CCC3)cc21 (racemic) | 56 | 9 | 19.1 | 45 |  | 13.3 | 15 |  | Drug uptake (Liver [18]): BLD
15 | COc1ccc2c(c1)C1CC1(C(=O)N1C3CCC1CN(C)C3)Cn1c-2c(C2CCCCC2)c2ccc(C(=O)NS(=O)(=O)C3CC3)cc21 (racemic) | 15 | 130 | 4.9 | 179 | 66 | 26.9 | 7 |  | concentration at 4 h [19]: 6.4 µM
16 | COc1ccc2c(c1)C1CC1(C(=O)N1C3CCC1CN(C)C3)Cn1c-2c(C2CCCCC2)c2ccc(C(=O)NS(C)(=O)=O)cc21 (racemic) | 18 | 80 | 3.6 | 179 |  | 54.4 | 13 |  | Drug uptake (Liver [15]): BLD
17 | CCS(=O)(=O)NC(=O)c1ccc2c(C3CCCCC3)c3n(c2c1)CC1(C(=O)N2C4CCC2CN(C)C4)CC1c1cc(OC)ccc1-3 (racemic) | 23 | 72 |  | 206 | 108 | 40 | 17 | 7.9 | 
18 | COc1ccc2c(c1)C1CC1(C(=O)N1C3CCC1CN(C)C3)Cn1c-2c(C2CCCCC2)c2ccc(C(=O)NS(=O)(=O)N(C)C)cc21 (racemic) | 12 |  |  | 76 |  |  |  |  | Papp [16]: 71.3 ×10⁻⁶ cm/s; concentration at 4 h [19]: 69 µM; remaining at 10 min (in vitro): 100%
19 | COc1ccc2c(c1)C1CC1(C(=O)N1C3CCC1CN(C)C3)Cn1c-2c(C2CCCCC2)c2ccc(C(=O)NS(=O)(=O)C3CCCC3)cc21 (racemic) | 62 | 18.2 |  | > 60 | 36 | 7.7 | 24 | 35.3 | 
20 | CCC(C)S(=O)(=O)NC(=O)c1ccc2c(C3CCCCC3)c3n(c2c1)CC1(C(=O)N2C4CCC2CN(C)C4)CC1c1cc(OC)ccc1-3 (racemic) | 37 | 38 |  | 18 |  |  | 15 |  | 
21 | COc1ccc2c(c1)[C@@H]1C[C@]1(C(=O)N1C3CCC1CN(C)C3)Cn1c-2c(C2CCCCC2)c2ccc(C(=O)NS(=O)(=O)C3CCC3)cc21 | 5 | 65.5 | 28 | 70.5 |  | 13.4 |  |  | EC50 (Hepatitis C virus [5]): 70 nM; concentration at 48 h [13]: 0.07 µM; remaining at 10 min (in vitro): 87.8%
